Results from the NIST ThermoML archive (doi:10.1016/j.jct.2014.07.018).
Several values for one entry are separate records, joined by “and”; a condition that tells them apart may be missing. Identical values can stand only once.

Assay: molar heat capacity at constant pressure
Details: 101.33 kPa, Vacuum adiabatic calorimetry

CCC[n+]1ccn(C)c1.[Br-] [1-methyl-3-propylimidazolium bromide]
molar heat capacity at constant pressure
Details	Crystal 2	Liquid
228.67 K	177 J/K/mol	–
229.42 K	177.5 J/K/mol	–
230 K	177.8 J/K/mol	261.5 J/K/mol
230.71 K	178.2 J/K/mol	–
231.48 K	178.7 J/K/mol	–
233.47 K	180 J/K/mol	–
233.54 K	180 J/K/mol	–
235.59 K	181.3 J/K/mol	–
235.81 K	181.5 J/K/mol	–
237.64 K	182.5 J/K/mol	–
237.86 K	182.7 J/K/mol	–
239.69 K	183.9 J/K/mol	–
239.9 K	184.1 J/K/mol	–
240 K	184.1 J/K/mol	263.8 J/K/mol
241.74 K	185.1 J/K/mol	–
241.94 K	185.3 J/K/mol	–
243.78 K	186.4 J/K/mol	–
243.99 K	186.6 J/K/mol	–
245.82 K	187.8 J/K/mol	–
246.03 K	187.9 J/K/mol	–
247.86 K	189.1 J/K/mol	–
248.07 K	189.3 J/K/mol	–
249.89 K	190.6 J/K/mol	–
250 K	190.6 J/K/mol	266.2 J/K/mol
250.11 K	190.7 J/K/mol	–
251.92 K	192 J/K/mol	–
252.16 K	192.2 J/K/mol	–
253.95 K	193.4 J/K/mol	–
254.2 K	193.6 J/K/mol	–
255.97 K	194.9 J/K/mol	–
256.25 K	195.1 J/K/mol	–
257.98 K	196.4 J/K/mol	–
258.29 K	196.7 J/K/mol	–
260 K	198 J/K/mol and 198.1 J/K/mol	269.1 J/K/mol
260.33 K	198.3 J/K/mol	–
262 K	199.6 J/K/mol	–
262.37 K	199.9 J/K/mol	–
264.01 K	201.2 J/K/mol	–
264.42 K	201.7 J/K/mol	–
266.06 K	203.2 J/K/mol	–
266.47 K	203.4 J/K/mol	–
268.16 K	205.1 J/K/mol	–
268.52 K	205.3 J/K/mol	–
270 K	206.7 J/K/mol	272 J/K/mol
270.26 K	207.1 J/K/mol	–
270.57 K	207.1 J/K/mol	–
272.36 K	209.2 J/K/mol	–
272.62 K	209.4 J/K/mol	–
274.45 K	211.5 J/K/mol	–
274.67 K	211.5 J/K/mol	–
276.54 K	213.9 J/K/mol	–
276.71 K	213.9 J/K/mol	–
278.62 K	216.6 J/K/mol	–
278.75 K	216.6 J/K/mol	–
280 K	216.4 J/K/mol	275.1 J/K/mol
280.68 K	219.5 J/K/mol	–
280.79 K	219.5 J/K/mol	–
282.74 K	222.7 J/K/mol	–
282.84 K	222.7 J/K/mol	–
284.78 K	226.4 J/K/mol	–
284.88 K	226.6 J/K/mol	–
286.82 K	230.9 J/K/mol	–
288.82 K	236.3 J/K/mol	–
290 K	227.1 J/K/mol	278.2 J/K/mol
290.81 K	242.8 J/K/mol	–
292.77 K	251.5 J/K/mol	–
294.69 K	262.7 J/K/mol	–
295.89 K	–	280.2 J/K/mol
296.57 K	278.5 J/K/mol	–
297.86 K	–	280.6 J/K/mol
298.15 K	–	280.8 J/K/mol
298.39 K	300.9 J/K/mol	–
299.92 K	–	281.4 J/K/mol
300 K	–	281.4 J/K/mol
300.12 K	334.9 J/K/mol	–
301.74 K	387.4 J/K/mol	–
301.97 K	–	282 J/K/mol
303.2 K	470.7 J/K/mol	–
304.02 K	–	282.8 J/K/mol
304.47 K	613.7 J/K/mol	–
305.51 K	844.2 J/K/mol	–
306.07 K	–	283.2 J/K/mol
306.32 K	1193 J/K/mol	–
306.93 K	1697 J/K/mol	–
308.12 K	–	284.1 J/K/mol
309.54 K	251.4 J/K/mol	284.6 J/K/mol
310 K	–	284.7 J/K/mol
310.17 K	–	284.7 J/K/mol
312.01 K	–	285.5 J/K/mol
312.22 K	–	285.3 J/K/mol
314.27 K	–	285.9 J/K/mol
316.32 K	–	286.9 J/K/mol
318.37 K	–	287.5 J/K/mol
320 K	–	288.1 J/K/mol
320.41 K	–	288.2 J/K/mol
322.46 K	–	288.8 J/K/mol
324.5 K	–	289.6 J/K/mol
326.54 K	–	290.4 J/K/mol
328.58 K	–	291 J/K/mol
330 K	–	291.7 J/K/mol
330.62 K	–	291.9 J/K/mol
332.66 K	–	292.7 J/K/mol
334.7 K	–	293.3 J/K/mol
336.73 K	–	294.1 J/K/mol
338.61 K	–	294.7 J/K/mol
340 K	–	295.3 J/K/mol
340.58 K	–	295.5 J/K/mol
342.63 K	–	296.2 J/K/mol
344.68 K	–	297 J/K/mol
346.73 K	–	297.8 J/K/mol
348.78 K	–	298.6 J/K/mol
350 K	–	299.1 J/K/mol
350.82 K	–	299.4 J/K/mol
352.87 K	–	300.3 J/K/mol
354.92 K	–	300.9 J/K/mol
356.97 K	–	301.7 J/K/mol
359.01 K	–	302.5 J/K/mol
360 K	–	303 J/K/mol
361.05 K	–	303.5 J/K/mol
363.1 K	–	304.2 J/K/mol
365.14 K	–	305 J/K/mol
367.18 K	–	305.8 J/K/mol
370 K	–	307 J/K/mol
